Measurements taken from ChEMBL document CHEMBL2385043, “Recent advances in malaria drug discovery” (Bioorg Med Chem Lett, 2013).
Values belong to the compound of their own block, whether it stands above or below them.

Legend:
[1] = tested on: Plasmodium vinckei; test: Antimalarial activity against Plasmodium vinckei infected in po dosed Swiss mouse; format: functional
[2] = Oral bioavailability in rat; format: ADME, organism-based; conditions: in vivo
[3] = tested on: Plasmodium berghei; test: Antimalarial activity against Plasmodium berghei ANKA infected in mouse assessed as reduction in parasitemia at 40 mg/kg, ip relative to control; format: functional; conditions: route intraperitoneal
[4] = tested on: Plasmodium falciparum; test: Antiplasmodial activity against drug-sensitive Plasmodium falciparum 3D7; format: functional, organism-based
[5] = Selectivity ratio of IC50 for human cytochrome b-c1 complex to IC50 for Plasmodium falciparum cytochrome b-c1 complex
[6] = Inhibition of Plasmodium falciparum cytochrome b-c1 complex
[7] = tested on: Plasmodium falciparum; test: Antiplasmodial activity against sexual blood stage of Plasmodium falciparum; format: functional, organism-based
[8] = tested on: Plasmodium falciparum; test: Antiplasmodial activity against asexual blood stage of Plasmodium falciparum; format: functional, organism-based
[9] = tested on: Plasmodium yoelii; test: Antiplasmodial activity against liver stage of Plasmodium yoelii; format: functional, organism-based
[10] = tested on: Plasmodium berghei; test: Antimalarial activity against Plasmodium berghei infected in po dosed mouse; format: functional
[11] = Half life in po dosed rat; conditions: in vivo
[12] = tested on: Plasmodium falciparum; test: Antimalarial activity against Plasmodium falciparum infected in po dosed mouse assessed as decrease in parasitemia administered on day 1 postinfection measured on day 3 by FACS analysis; format: functional
[13] = tested on: Plasmodium falciparum; test: Antiplasmodial activity against chloroquine-resistant Plasmodium falciparum K1 infected in human erythrocytes after 48 hrs by [3H]-hypoxanthine incorporation assay; format: functional, organism-based
[14] = Half life in human; format: ADME, organism-based; conditions: in vivo
[15] = tested on: Plasmodium falciparum; test: Antiplasmodial activity against chloroquine and antifolate-sensitive Plasmodium falciparum TM4 after 24 hrs by [3H]-hypoxanthine incorporation assay; format: functional, organism-based
[16] = tested on: Plasmodium falciparum; test: Antimalarial activity against Plasmodium falciparum infected in mouse; format: functional
[17] = tested on: Plasmodium falciparum; test: Antiplasmodial activity against drug-sensitive Plasmodium falciparum 3D7 after 72 hrs by SYBR Green staining-based fluorescence assay; format: functional, organism-based; conditions: 3D7, 72 h
[18] = tested on: Plasmodium falciparum; test: Antiplasmodial activity against multidrug-resistant Plasmodium falciparum Dd2 after 72 hrs by SYBR Green staining-based fluorescence assay; format: functional, organism-based; conditions: Dd2, 72 h
[19] = Oral bioavailability in mouse; format: ADME, organism-based; conditions: in vivo
[20] = tested on: Plasmodium berghei; test: Antimalarial activity against Plasmodium berghei infected in Swiss albino mouse assessed as reduction in parasitemia after 4 days by microscopic analysis; format: functional; conditions: 96 h
[21] = tested on: Plasmodium berghei; test: Antimalarial activity against Plasmodium berghei infected in Swiss albino mouse assessed as reduction in parasitemia after 4 days by microscopic analysis relative to artesunate; format: functional
[22] = tested on: Plasmodium falciparum; test: Antiplasmodial activity against Plasmodium falciparum relative to artesunate; format: functional
[23] = tested on: Plasmodium falciparum; test: Antiplasmodial activity against drug-sensitive Plasmodium falciparum 3D7 after 24 hrs by [3H]-hypoxanthine incorporation assay; format: functional, organism-based
[24] = tested on: Plasmodium falciparum; test: Antiplasmodial activity against NITD609-resistant Plasmodium falciparum Dd2 infected in human erythrocytes after 48 hrs by [3H]-hypoxanthine incorporation assay; format: functional, organism-based

SMILES: C/C(=C1\CCOC(=O)S1)N(C=O)CCCCCCCCCCCCN(C=O)/C(C)=C1/CCOC(=O)S1
ED50 [1]: 5 mg/kg/day | bioavailability [2]: 15%

SMILES: CCCCCCCCCCOc1cc2c(O)c(C(=O)OCC)cnc2cc1OCC [DECOQUINATE]
Ratio IC50 [5]: > 5000 | IC50 [6]: 2 nM | EC50 [7]: 36 nM | EC50 [8]: 10 nM | EC50 [9]: 2.6 nM

SMILES: C[C@H]1Cc2c([nH]c3cc(Cl)c(F)cc23)[C@@]2(N1)C(=O)Nc1ccc(Cl)cc12 [CIPARGAMIN]
ED50 [10]: 1.2 mg/kg | half-life [11]: 1620 min | bioavailability [2]: 100% | EC50 [4]: 0.7 nM

SMILES: C[C@H]1[C@H](OC(=O)CCC(=O)O)O[C@@H]2O[C@@]3(C)CC[C@H]4[C@H](C)CC[C@@H]1[C@@]24OO3 [ARTESUNATE]
ED50 [12]: 6.2 mg/kg/day | EC50 [13]: 3.1 nM | half-life [14]: 60 min

SMILES: CO[C@H]1O[C@@H]2O[C@@]3(C)CC[C@H]4[C@H](C)CC[C@@H]([C@H]1C)[C@@]24OO3
half-life [14]: 60 min

SMILES: C[C@H]1[C@@H](O)O[C@@H]2O[C@@]3(C)CC[C@H]4[C@H](C)CC[C@@H]1[C@@]24OO3 [ARTENIMOL]
half-life [14]: 60 min

SMILES: CCOc1ccc(F)cc1C1(O)C(N)=Nc2ccc(Cl)cc21 (stereo not drawn)
ED99 [16]: 100 mg/kg/day | EC50 [17]: 28 nM | EC50 [18]: 65 nM

SMILES: CN1CCN(C2CCN(C(=O)CC3CCC4(CC3)OOC3(OO4)C4CC5CC(C4)CC3C5)CC2)CC1.Cc1ccc(S(=O)(=O)O)cc1 (stereo not drawn)
bioavailability [2]: 38% | bioavailability [19]: 42%

SMILES: C[C@H]1[C@H](N2CCS(=O)(=O)CC2)O[C@@H]2O[C@@]3(C)CC[C@H]4[C@H](C)CC[C@@H]1[C@@]24OO3 [ARTEMIFONE]
ED50 [20]: 2 mg/kg/day | fold change (FC) [21]: 4 | fold change (FC) [22]: 10 | EC50 [23]: 0.88 nM

SMILES: C[C@@H]1CC[C@H]2[C@@H](C)C(=O)O[C@@H]3O[C@@]4(C)CC[C@@H]1[C@]32OO4 [ARTEMISININ]
EC50 [24]: 15 nM

Second part, led by results:

EC50 [4]: 75 nM
SMILES: COc1cc2nc(N3CCCN(C)CC3)nc(NC3CCN(Cc4ccccc4)CC3)c2cc1OC
fold change (FC) [3]: 2

EC50 [4]: 11 nM
SMILES: CCN(CC)Cc1cc(Nc2ccnc3cc(Cl)ccc23)ccc1O

EC50 [15]: 38 nM
SMILES: CC1(C)N=C(N)N=C(N)N1c1ccc(Cl)cc1 [CYCLOGUANIL]

EC50 [4]: 100 nM
SMILES: CC(C)(C)c1cc(C(=O)N2CCN(c3ncccc3C(F)(F)F)CC2)n(Cc2ccccc2)n1

EC50 [4]: 100 nM
SMILES: COc1cc2c(NC3CCN(C)CC3)nc(N3CCCN(C)CC3)nc2cc1OCc1ccccc1
fold change (FC) [3]: 18
